Results: ChEMBL document CHEMBL1123572, “Synthesis and antiarrhythmic activity of novel 3-alkyl-1-[omega-[4-[(alkylsulfonyl)amino]phenyl]-omega- hydroxyalkyl]-1H-imidazolium salts and related compounds. 2” (1987)
Several values for one entry are separate records, joined by “and”; a condition that tells them apart may be missing. Equal values may be shown once.

What was measured:
Canis familiaris [1] = species: Canis familiaris; test: In vitro activity in isolated canine cardiac ventricular muscle tissue given as 20 percent increase or decrease in FRP (functional refractory period); set-up: species or system Canis lupus familiaris
Canis familiaris [2] = species: Canis familiaris; test: In vitro electrophysiological activity in isolated canine cardiac ventricular muscle tissue given as maximum change in FRP from control value at 100 uM concentration; format: functional, Canis lupus familiaris
Canis familiaris [3] = species: Canis familiaris; test: In vitro activity in isolated canine cardiac Purkinje fibers given as maximum change in APD95 from control value at 100 uM of concentration; format: functional, Canis lupus familiaris, Purkinje fiber
Canis familiaris [4] = species: Canis familiaris; test: In vitro activity in isolated canine cardiac Purkinje fibers given as 20 percent increase or decrease in action potential duration; format: functional, Canis lupus familiaris, Purkinje fiber
Canis familiaris [5] = species: Canis familiaris; test: The compound was evaluated for the change in heart rate at MED for 0.1-30 dose range in PES model; format: functional, Canis lupus familiaris
Canis familiaris [6] = species: Canis familiaris; test: The compound was evaluated for the mean effective dose for antiarrhythmic efficacy in PES model; format: functional; details: Canis lupus familiaris, Heart; read-out: MED
Canis familiaris [7] = test: The compound was evaluated the change in heart rate at 10 mg/kg active dose; format: functional, Canis lupus familiaris
Canis familiaris [8] = species: Canis familiaris; test: The compound was evaluated for the change in blood pressure at MED for 0.1-30 dose range in PES model; format: functional, Canis lupus familiaris
Canis familiaris [9] = test: The compound was evaluated the change in blood pressure at 10 mg/kg active dose; format: functional, Canis lupus familiaris
Canis familiaris [10] = test: The compound was evaluated the change in functional refractory period at 10 mg/kg active dose; set-up: species or system Canis lupus familiaris
Canis familiaris [11] = species: Canis familiaris; test: The compound was evaluated for the change in heart rate at MED for 0.3-30 dose range in PES model.; format: functional, Canis lupus familiaris
Canis familiaris [12] = species: Canis familiaris; test: The compound was evaluated for the change in blood pressure at MED for 0.3-30 dose range in PES model; format: functional, Canis lupus familiaris
Canis familiaris [13] = species: Canis familiaris; test: In vitro activity in isolated canine cardiac Purkinje fibers given as maximum change in APD95 from control value at 10 uM of concentration; format: functional, Canis lupus familiaris, Purkinje fiber
Canis familiaris [14] = species: Canis familiaris; test: The compound was evaluated for the change in heart rate at MED for 0.1-10 dose range in PES model; format: functional, Canis lupus familiaris
Canis familiaris [15] = species: Canis familiaris; test: The compound was evaluated for the change in blood pressure at MED for 0.1-10 dose range in PES model; format: functional, Canis lupus familiaris
Canis familiaris [16] = species: Canis familiaris; test: The compound was evaluated for the change in heart rate at MED for 0.3-10 dose range in PES model; format: functional, Canis lupus familiaris
Canis familiaris [17] = species: Canis familiaris; test: The compound was evaluated for the change in blood pressure at MED for 0.3-10 dose range in PES model; format: functional, Canis lupus familiaris
Canis familiaris [18] = species: Canis familiaris; test: In vitro electrophysiological activity in isolated canine cardiac ventricular muscle tissue given as maximum change in FRP from control value at 100 uM concentration; NR = Not reached; format: functional; details: Canis lupus familiaris

Row | SMILES | C20 FRP (Canis familiaris [1]) | FRP (Canis familiaris [2]) | APD95 (Canis familiaris [3]) | C20 APD95 (Canis familiaris [4]) | further results
1 | C[n+]1ccn(CC(C)(O)c2ccc(NS(C)(=O)=O)cc2)c1.[Cl-] (configuration not stated) | 24.3 µM | 29% | 71% | 1.5 µM | –
2 | CC(C)NCC(O)c1ccc(NS(C)(=O)=O)cc1 (configuration not stated) [SOTALOL] | 24.7 µM | 23% | 48% | 14.4 µM | HR (Canis familiaris [5]): -23%; minimal effective dose (Canis familiaris [6]): 1.4 mg/kg; HR (Canis familiaris [7]): -11%; BP (Canis familiaris [8]): -23%; BP (Canis familiaris [9]): 8%; FRP (Canis familiaris [10]): 16%
3 | CS(=O)(=O)Nc1ccc(C(=O)C[n+]2ccsc2)cc1.[Cl-] | 10 µM | 17% | 80% | 3.1 µM | –
4 | Cc1n2c(c[n+]1C)C(c1ccc(NS(C)(=O)=O)cc1)=CCC2.[I-] | 2.9 µM | 40% | 38% | 2.8 µM | –
5 | CC1=NCCN1CC(O)c1ccc(NS(C)(=O)=O)cc1.Cl (configuration not stated) | 1.1 µM and 1.9 µM | 42% and 38% | 63% | 0.6 µM | HR (Canis familiaris [11]): -21%; minimal effective dose (Canis familiaris [6]): 2 mg/kg; HR (Canis familiaris [7]): -23%; BP (Canis familiaris [12]): -1%; BP (Canis familiaris [9]): 2%; FRP (Canis familiaris [10]): 22%
6 | C[n+]1ccn(/C=C/c2ccc(O)cc2)c1.[Br-] | – | – | 27% | 10.2 µM | APD95 (Canis familiaris [13]): 23% and 20%
7 | CCCCCCC[N+](CC)(CC)CCCCc1ccc(Cl)cc1 [CLOFILIUM] | – | 7% | – | 0.26 µM | HR (Canis familiaris [14]): -12%; minimal effective dose (Canis familiaris [6]): 0.63 mg/kg; HR (Canis familiaris [7]): -18%; BP (Canis familiaris [15]): 2%; BP (Canis familiaris [9]): -4%; FRP (Canis familiaris [10]): 22%; APD95 (Canis familiaris [13]): 39%
8 | C[n+]1ccn(CC(O)c2ccc(NS(C)(=O)=O)cc2)c1.[Cl-] (configuration not stated) | 5.9 µM | 31% | 50% | 1.6 µM | HR (Canis familiaris [16]): -23%; minimal effective dose (Canis familiaris [6]): 6.5 mg/kg; HR (Canis familiaris [7]): -10%; BP (Canis familiaris [17]): 0%; BP (Canis familiaris [9]): 5%; FRP (Canis familiaris [10]): 21%
9 | CC(C(O)c1ccc(NS(C)(=O)=O)cc1)n1cc[n+](C)c1.[Cl-] (configuration not stated) | 11.2 µM | 31% | 36% | 4.2 µM | –
10 | CC(C(=O)c1ccc(NS(C)(=O)=O)cc1)n1cc[n+](C)c1.[Cl-] (configuration not stated) | 7.7 µM | 22% | 65% | 3 µM | –
11 | Cn1cc[n+](C)c1C(O)c1ccc(NS(C)(=O)=O)cc1.[I-] (configuration not stated) | – | 17% | 37% | 20.7 µM | –
12 | CC1=NCCN1CC(=O)c1ccc(NS(C)(=O)=O)cc1 | 6.3 µM | 38% | 74% | 1.3 µM | –
13 | C[n+]1ccn(CCc2ccc(O)cc2)c1.[Cl-] | 50.1 µM | 7% | 20% | 6.2 µM | APD95 (Canis familiaris [13]): 23%
14 | Cc1n2c(c[n+]1C)C(c1ccc(NS(C)(=O)=O)cc1)CCC2.[I-] (configuration not stated) | – | – | 27% | 46.6 µM | FRP (Canis familiaris [18]): Not reached
